Measured values reported in patent US20210069135A1, “THERAPEUTIC APPROACHES FOR TREATING EPILEPSY AND RELATED DISORDERS THROUGH REDUCTION OF EPILEPTOGENESIS” (PHARNEXT, priority 2012, published 2021).
Entries after “also recorded” stand apart in the source; their conditions may differ.

Experiments:
[1] = tested on: PTZ-induced seizures in mice; experiment: Pentylenetetrazol (PTZ)-induced seizure in mice model; format: in vivo, CD-1 mice
Method: Four to five week old male CD-1 mice of about 20 g (Janvier; Le Genest St Isle—France) were acclimatized to the environment for one week before the experiment.
They were group-housed (5-10 mice per cage) and maintained in a room with controlled temperature (21-22° C.) and a reversed light-dark cycle (12 h/12 h; lights on: 17:30-05:30; lights off: 05:30-17:30) with food and water available ad libitum.
PTZ-induced seizures in mice are an accepted in vivo model for the screening of antiepileptic drugs. PTZ is a blocker of the chloride ionophore complex to the GABAA receptor that has […] effects after repeated or single dose administration and also affects several neurotransmitter systems, such as the GABAergic and glutamatergic systems. Seizures were induced by administration of 100 mg/kg (subcutaneously) of PTZ. Levetiracetam (500 mg/kg), used as an internal positive control, was administered 60 min before the PTZ injection. Drugs of the invention were injected per os 2 h before PTZ administration. Acamprosate calcium (two molecules of acamprosate for a calcium ion) was tested at three different doses.
As already stated, 100 mg/kg PTZ were injected subcutaneously and the animals were then observed for 1 h after injection. The latencies for clonic seizures, tonic seizures, and death were monitored. Clonic seizures consist in rhythmic contractions of forelimbs and/or hindlimbs. Tonic seizures consist in rigid extension of the forelimbs and/or hindlimbs.
Analysis of variance (ANOVA) was performed on the result data. Fisher's Protected Least Significant Difference was used for pairwise comparisons. Statistical difference was assessed by Fisher's exact test. p values≤0.05 were considered significant.

neuronal cortical cells = experiment: Glutamate toxicity assay on primary cortical neuron cells (neurite network, neurofilament immunostaining); format: cell-based, rat; settings: for protection against glutamate toxicity, drug alone: torasemide or baclofen alone at the same doses as in the combination of FIG. 4 (400 nM, 2 μM), not significant
Method: Rat cortical neurons were cultured as described by Singer et al.. Briefly, pregnant female rats of 15 days gestation were killed by cervical dislocation (Rats Wistar) and the fetuses were removed from the uterus. The cortex was removed and placed in ice-cold medium of Leibovitz (L15) containing 2% of penicillin 10,000 U/mL and streptomycin 10 mg/mL and 1% of bovine serum albumin (BSA). Cortices were dissociated by trypsin for 20 min at 37° C. (0.05%). The reaction was stopped by the addition of Dulbecco's modified Eagle's medium (DMEM) containing DNasel grade II and 10% of foetal calf serum (FCS). Cells were then mechanically dissociated by 3 serial passages through a 10 mL pipette and centrifuged at 515×g for 10 min at +4° C. The supernatant was discarded and the pellet of cells was re-suspended in a defined culture medium consisting of Neurobasal supplemented with B27 (2%), L-glutamine (0.2 mM), 2% of PS solution and 10 ng/mL of BDNF. Viable cells were counted in a Neubauer cytometer using the trypan blue exclusion test. The cells were seeded at a density of 30 000 cells/well in 96 well-plates (wells were pre-coated with poly-L-lysine (10 μg/mL)) and were cultured at +37° C. in a humidified air (95%)/CO2 (5%) atmosphere.
After 12 days of neuron culture, drugs of the candidate combinations were solved in culture medium (+0.1% DMSO). Candidate drugs or drug combinations were then pre-incubated with neurons for 1 h before the glutamate injury. Glutamate was added for 20 min, to a final concentration of 40 μM in presence of candidate drugs or drug combinations. At the end of the incubation, medium was changed with medium with candidate combination but without glutamate. The culture was fixed 24 h after glutamate injury. MK801 (Dizocilpinehydrogen maleate, 77086-22-7-20 μM) was used as a positive control.
After permeabilization with saponin (Sigma), cells were blocked for 2 h with PBS containing 10% goat serum, then the cells were incubated with mouse monoclonal primary antibody against Neurofilament antibody (NF, Sigma).
Nuclei of cells were labeled by a fluorescent marker (Hoechst solution, SIGMA), and neurite network quantified. Six wells per condition were used to assess neuronal survival in 3 different cultures.

[2] = high dose of acamprosate calcium
[3] = low dose of acamprosate calcium
[4] = baclofen 400 nM alone or acamprosate 1.6 nM alone, FIG. 3
[5] = baclofen 2 μM alone or torasemide 400 nM alone, FIG. 4
[6] = cinacalcet 64 μM alone or mexiletine 25.6 μM alone, FIG. 1
[7] = levetiracetam 500 mg/kg 60 min before PTZ
[8] = sulfisoxazole 6.8 nM alone or torasemide 400 nM alone, FIG. 2

## CC(=O)NCCCS(=O)(=O)[O-].CC(=O)NCCCS(=O)(=O)[O-].[Ca+2] [acamprosate calcium]
[1]; acamprosate calcium 0.032 mg/kg, PTZ 100 mg/kg s.c., not shown
  latency to clonic seizure (in words): increase
[1]; acamprosate calcium 0.5 mg/kg per os 2 h before PTZ 100 mg/kg s.c., FIG. 6, p<0.05 vs vehicle
  latency to clonic seizure (in words): significant increase
[1]; acamprosate calcium 0.5 mg/kg per os 2 h before PTZ 100 mg/kg s.c., FIG. 6, p<0.05 vs vehicle, listed as Acamprosate calcium
  latency to clonic seizure (in words): efficient in increasing
[1]; [2]
  reduction of prevalence of death: 38%
  reduction of prevalence of mice with clonic seizure: 30%
  reduction of prevalence of mice with tonic seizure: 38%
[1]; [3]
  reduction of prevalence of death: 25%
  reduction of prevalence of mice with clonic seizure: 20%
  reduction of prevalence of mice with tonic seizure: 25%

## CC(=O)NCCCS(=O)(=O)O [acamprosate, Acamprosate]
Neuronal cortical cells; [4]
  effect on glutamate intoxication, drug alone: no statistically significant effect

## NCC(CC(=O)O)c1ccc(Cl)cc1 (stereo not shown) [baclofen, Baclofen]
Neuronal cortical cells; [4]
  effect on glutamate intoxication, drug alone: no statistically significant effect
Neuronal cortical cells; [5]
  effect on glutamate intoxication, drug alone: no significant results; also recorded: no statistically significant effect
Neuronal cortical cells
  protection against glutamate toxicity, drug alone: 13%

## C[C@@H](NCCCc1cccc(C(F)(F)F)c1)c1cccc2ccccc12 [cinacalcet, Cinacalcet]
Neuronal cortical cells; [6]
  effect on glutamate intoxication, drug alone: no protection at all; also recorded: no significant effect

## CC[C@@H](C(N)=O)N1CCCC1=O [levetiracetam]
[1]; [7]
  PTZ-induced death (in words): reversed
  PTZ-induced tonic seizure (in words): reversed
[1]; levetiracetam 500 mg/kg 60 min before PTZ 100 mg/kg s.c., FIG. 6
  time to clonic seizure (in words): no significant effect

## Cc1cccc(C)c1OCC(C)N (stereo not shown) [mexiletine, Mexiletine]
Neuronal cortical cells; [6]
  effect on glutamate intoxication, drug alone: no protection at all; also recorded: no significant effect

## Cc1noc(NS(=O)(=O)c2ccc(N)cc2)c1C [sulfisoxazole, Sulfisoxazole]
Neuronal cortical cells; [8]
  effect on glutamate intoxication, drug alone: no significant effect

## Cc1cccc(Nc2ccncc2S(=O)(=O)NC(=O)NC(C)C)c1 [torasemide, Torasemide]
Neuronal cortical cells; [5]
  effect on glutamate intoxication, drug alone: no significant results; also recorded: no statistically significant effect
Neuronal cortical cells; [8]
  effect on glutamate intoxication, drug alone: no significant effect
Neuronal cortical cells
  protection against glutamate toxicity, drug alone: 8%
